Results: patent US20240417410A1, “TRICYCLIC COMPOUNDS FOR THE TREATMENT OF CANCER” (Hoffmann-La Roche Inc., priority 2023, published 2024)

Experiments:
AGS cells (KRAS G12D) = assay: Cell viability assay (Cell Counting Kit-8, 3-day); assay type: cell-based, human; conditions: 72 hrs incubation
Summary of the method: (§1)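 Cells seeded at 5,000/well (NCI-H358) or 2,000/well (AGS, SW620), treated next day at 0.5% final DMSO for 72 h. Viability read by CCK-8 (OD450 minus OD650) after 2 h; IC50 from 4-parameter sigmoidal fit.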

[1] = system: NCI-H358 cells (KRAS G12C); assay: Cell viability assay (Cell Counting Kit-8, 3-day); assay type: cell-based, human; conditions: NCI-H358, 72 hrs incubation
Summary of the method: as §1

SW620 cells (KRAS G12V) = assay: Cell viability assay (Cell Counting Kit-8, 3-day); assay type: cell-based, human; conditions: SW620, 72 hrs incubation
Summary of the method: as §1

KRAS G12C-BRAF complex = KRAS G12C-BRAF complex (Homo sapiens (Human), UniProt P01116+P62937, G12C); assay: KRAS-BRAF with CYPA (500 nM) interaction assay (TR-FRET, Example 136); assay type: biochemical; conditions: KRAS G12C-BRAF disruption
[2] = system: phosphorylation of ERK, KRAS G12C in NCI-H358 cells; assay: pERK inhibition assay; assay type: cell-based
Summary of the method: (§2)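 NCI-H358 (KRAS G12C), AGS (G12D) and SW620 (G12V) cells plated overnight, then treated with compound for 4 h in 0.5% DMSO. After fixing and methanol permeabilisation, phospho-ERK was detected by in-cell ELISA (HRP/TMB, OD450). IC50 from a 4-parameter sigmoidal fit.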

[3] = system: phosphorylation of ERK, KRAS G12D in AGS cells; assay: pERK inhibition assay; assay type: cell-based
Summary of the method: as §2

[4] = system: phosphorylation of ERK, KRAS G12V in SW620; assay: pERK inhibition assay; assay type: cell-based; conditions: SW620 cells
Summary of the method: as §2

KRAS G12C-BRAF complex, sequence (P01116-2 other isoform, or with tags, fused parts or gaps G12C): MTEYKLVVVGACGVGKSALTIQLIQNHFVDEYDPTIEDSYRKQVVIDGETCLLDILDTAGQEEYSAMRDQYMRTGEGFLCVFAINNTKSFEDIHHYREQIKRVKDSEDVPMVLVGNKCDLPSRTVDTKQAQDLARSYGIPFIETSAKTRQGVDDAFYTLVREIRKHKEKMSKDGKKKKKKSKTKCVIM
KRAS G12C-BRAF complex, sequence (P62937 whole entry): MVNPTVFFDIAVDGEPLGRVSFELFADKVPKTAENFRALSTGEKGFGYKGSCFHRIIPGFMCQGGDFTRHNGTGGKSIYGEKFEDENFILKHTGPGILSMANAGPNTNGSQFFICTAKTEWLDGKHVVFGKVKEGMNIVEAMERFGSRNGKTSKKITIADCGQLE

Row | Compound | IC50 (AGS cells (KRAS G12D); Homo sapiens, 72 h) | IC50 ([1]; Homo sapiens, NCI-H358, 72 h) | IC50 (SW620 cells (KRAS G12V); Homo sapiens, SW-620) | IC50 (KRAS G12C-BRAF complex) | IC50 ([2]; Homo sapiens, NCI-H358, 4 h) | IC50 ([3]; Homo sapiens, AGS, 4 h) | IC50 ([4]; Homo sapiens, SW-620, 4 h) | IC50 (AGS cells (KRAS G12D)) | IC50 [1] | IC50 (SW620 cells (KRAS G12V)) | IC50 ([2]; 4 hours) | IC50 ([3]; 4 hours) | IC50 ([4]; 4 hours)
1 | CO[C@@H](C)c1ncc(N2CCN(C3CCOCC3)CC2)cc1-c1c2c3cc(cc4c3n1CCC4)-c1csc(n1)C[C@H](NC(=O)[C@H]1[C@H](C)[C@@H]1C)C(=O)N1CCC[C@H](N1)C(=O)OCC(C)(C)C2 (atropisomer, axis not shown; (M)) [Example 117, (1r,2R,3S)-N-[(7S,13S)-(20M)-20-[2-[(1S)-1-methoxyethyl]-5-(4-tetrahydropyran-4-ylpiperazin-1-yl)-3-pyridyl]-17,17-dimethyl-8,14-dioxo-15-oxa-4-thia-9,21,30,31-tetrazahexacyclo[23.3.1.1^2,5.1^9,13.0^19,27.0^21,26]hentriaconta-1 (28),2,5 (31), 19,25 (29),26-hexaen-7-yl]-2,3-dimethyl-cyclopropanecarboxamide] | 2.5 nM | 1.5 nM | 0.2 nM | 15.9 nM | 0.7 nM | 4.1 nM | 0.3 nM |  |  |  |  |  | 
2 | CO[C@@H](C)c1ncc(N2CCN(C3COC3)CC2)cc1-c1c2c3cc(cc4c3n1CCC4)-c1csc(n1)C[C@H](NC(=O)[C@H]1[C@H](C)[C@@H]1C)C(=O)N1CCC[C@H](N1)C(=O)OCC(C)(C)C2 (atropisomer, axis not shown; (M)) [Example 118, (1r,2R,3S)-N-[(7S,13S)-(20M)-20-[2-[(1S)-1-methoxyethyl]-5-[4-(oxetan-3-yl)piperazin-1-yl]-3-pyridyl]-17,17-dimethyl-8,14-dioxo-15-oxa-4-thia-9,21,30,31-tetrazahexacyclo[23.3.1.1^2,5.1^9,13.0^19,27.0^21,26]hentriaconta-1 (28),2,5 (31), 19,25 (29),26-hexaen-7-yl]-2,3-dimethyl-cyclopropanecarboxamide] | 1.3 nM | 1.1 nM | 0.2 nM | 13.5 nM | 0.7 nM | 3.5 nM | 0.3 nM |  |  |  |  |  | 
3 | CO[C@@H](C)c1ncc(N2CCN(C[C@@H]3CNCCO3)CC2)cc1-c1c2c3cc(cc4c3n1CCC4)-c1csc(n1)C[C@H](NC(=O)[C@H]1[C@H](C)[C@@H]1C)C(=O)N1CCC[C@H](N1)C(=O)OCC(C)(C)C2 (atropisomer, axis not shown; (M)) [Example 119, (1r,2S,3R)-N-[(7S,13S)-(20M)-20-[2-[(1S)-1-methoxyethyl]-5-[4-[[(2S)-morpholin-2-yl]methyl]piperazin-1-yl]-3-pyridyl]-17,17-dimethyl-8,14-dioxo-15-oxa-4-thia-9,21,30,31-tetrazahexacyclo[23.3.1.1^2,5.1^9,13.0^19,27.0^21,26]hentriaconta-1 (28),2,5 (31),19,25 (29),26-hexaen-7-yl]-2,3-dimethyl-cyclopropanecarboxamide] | 4.4 nM | 3.5 nM | 0.8 nM | 9.3 nM | 1.7 nM | 6.9 nM | 1.2 nM |  |  |  |  |  | 
4 | CO[C@@H](C)c1ncc(N2CCN(C)CC2)cc1-c1c2c3cc(cc4c3n1CCC4)-c1csc(n1)C[C@H](NC(=O)[C@@H]1C[C@H]1c1cncc(C)c1)C(=O)N1CCC[C@H](N1)C(=O)OCC(C)(C)C2 (atropisomer, axis not shown; (M)) [Example 120, (1R,2R)-N-[(7S,13S)-(20M)-20-[2-[(1S)-1-methoxyethyl]-5-(4-methylpiperazin-1-yl)-3-pyridyl]-17,17-dimethyl-8,14-dioxo-15-oxa-4-thia-9,21,30,31-tetrazahexacyclo[23.3.1.1^2,5.1^9,13.0^19,27.0^21,26]hentriaconta-1 (28),2,5 (31), 19,25 (29),26-hexaen-7-yl]-2-(5-methyl-3-pyridyl)cyclopropanecarboxamide] | 2.2 nM | 1.4 nM | 0.4 nM | 20.4 nM | 1.1 nM | 2.9 nM | 0.9 nM |  |  |  |  |  | 
5 | CO[C@@H](C)c1ncc(N2CCN(CCN3CCCC3=O)CC2)cc1-c1c2c3cc(cc4c3n1CCC4)-c1csc(n1)C[C@H](NC(=O)[C@H]1[C@H](C)[C@@H]1C)C(=O)N1CCC[C@H](N1)C(=O)OCC(C)(C)C2 (atropisomer, axis not shown; (M)) [Example 121, (1r,2R,3S)-N-[(7S,13S)-(20M)-20-[2-[(1S)-1-methoxyethyl]-5-[4-[2-(2-oxopyrrolidin-1-yl)ethyl]piperazin-1-yl]-3-pyridyl]-17,17-dimethyl-8,14-dioxo-15-oxa-4-thia-9,21,30,31-tetrazahexacyclo[23.3.1.1^2,5.1^9,13.0^19,27.0^21,26]hentriaconta-1 (28),2,5 (31), 19,25 (29),26-hexaen-7-yl]-2,3-dimethyl-cyclopropanecarboxamide] | 2.4 nM | 1.6 nM | 0.3 nM | 13 nM | 0.9 nM | 3.4 nM | 0.3 nM |  |  |  |  |  | 
6 | CO[C@@H](C)c1ncc(N2CCN(CCC(C)(C)OC)CC2)cc1-c1c2c3cc(cc4c3n1CCC4)-c1csc(n1)C[C@H](NC(=O)[C@H]1[C@H](C)[C@@H]1C)C(=O)N1CCC[C@H](N1)C(=O)OCC(C)(C)C2 (atropisomer, axis not shown; (M)) [Example 123, (1r,2R,3S)-N-[(7S,13S)-(20M)-20-[2-[(1S)-1-methoxyethyl]-5-[4-(3-methoxy-3-methyl-butyl)piperazin-1-yl]-3-pyridyl]-17,17-dimethyl-8,14-dioxo-15-oxa-4-thia-9,21,30,31-tetrazahexacyclo[23.3.1.1^2,5.1^9,13.0^19,27.0^21,26]hentriaconta-1 (28),2,5 (31), 19,25 (29),26-hexaen-7-yl]-2,3-dimethyl-cyclopropanecarboxamide] | 5.1 nM | 3 nM | 0.6 nM | 13.7 nM | 0.8 nM | 7.1 nM | 0.6 nM |  |  |  |  |  | 
7 | CO[C@@H](C)c1ncc(N2CCN(C)CC2)cc1-c1c2c3cc(c(F)c4c3n1CCC4)-c1csc(n1)C[C@H](NC(=O)[C@H]1[C@H](C)[C@@H]1C)C(=O)N1CCC[C@H](N1)C(=O)OCC(C)(C)C2 (atropisomer, axis not shown; (M)) [Example 124, (1r,2S,3R)-N-[(7S,13S)-29-fluoro-(20M)-20-[2-[(1S)-1-methoxyethyl]-5-(4-methylpiperazin-1-yl)-3-pyridyl]-17,17-dimethyl-8,14-dioxo-15-oxa-4-thia-9,21,30,31-tetrazahexacyclo[23.3.1.1^2,5.1^9,13.0^19,27.0^21,26]hentriaconta-1 (28),2,5 (31), 19,25 (29),26-hexaen-7-yl]-2,3-dimethyl-cyclopropanecarboxamide] | 13.8 nM | 8.9 nM | 1.6 nM | 16.2 nM | 1.4 nM | 15.7 nM | 0.7 nM |  |  |  |  |  | 
8 | COC(C)c1ncc(N2CCN(C)CC2)cc1-c1c2c3cc(cc4c3n1CCO4)-c1csc(n1)CC(NC(=O)C1CC1C)C(=O)N1CCCC(N1)C(=O)OCC(C)(C)C2 [Example 17, (1S,2S)-N-[(7S,13S)-(20M)-20-[2-[(1S)-1-methoxyethyl]-5-(4-methylpiperazin-1-yl)-3-pyridyl]-17,17-dimethyl-8,14-dioxo-15,24-dioxa-4-thia-9,21,30,31-tetrazahexacyclo[23.3.1.1^2,5.1^9,13.0^19,27.0^21,26]hentriaconta-1 (28),2,5 (31),19,25 (29),26-hexaen-7-yl]-2-methyl-cyclopropanecarboxamide] |  |  |  | 25.4 nM |  |  |  | 21.7 nM | 10.3 nM | 1.1 nM | 2.9 nM | 2.7 nM | 1.8 nM
9 | CO[C@@H](C)c1ncc(N2CCN(C)CC2)cc1-c1c2c3cc(cc4c3n1CCO4)-c1csc(n1)C[C@H](NC(=O)C1(C)CC1(F)F)C(=O)N1CCC[C@H](N1)C(=O)OCC(C)(C)C2 (stereo partly drawn) [Example 54, 2,2-difluoro-N-[(7S,13S)-(20M)-20-[2-[(1S)-1-methoxyethyl]-5-(4-methylpiperazin-1-yl)-3-pyridyl]-17,17-dimethyl-8,14-dioxo-15,24-dioxa-4-thia-9,21,30,31-tetrazahexacyclo[23.3.1.1^2,5.1^9,13.0^19,27.0^21,26]hentriaconta-1 (29),2,5 (31), 19,25,27-hexaen-7-yl]-1-methyl-cyclopropanecarboxamide] | 36.8 nM | 12.1 nM | 3 nM | 23.3 nM | 1.3 nM | 8.8 nM | 1 nM |  |  |  |  |  | 
10 | CO[C@@H](C)c1ncc(N2CCN(C)CC2)cc1-c1c2c3cc(cc4c3n1CCO4)-c1csc(n1)C[C@H](NC(=O)C1(C)CC1C)C(=O)N1CCC[C@H](N1)C(=O)OCC(C)(C)C2 (stereo partly drawn) [Example 55, N-[(7S,13S)-(20M)-20-[2-[(1S)-1-methoxyethyl]-5-(4-methylpiperazin-1-yl)-3-pyridyl]-17,17-dimethyl-8,14-dioxo-15,24-dioxa-4-thia-9,21,30,31-tetrazahexacyclo[23.3.1.1^2,5.1^9,13.0^19,27.0^21,26]hentriaconta-1 (29),2,5 (31), 19,25,27-hexaen-7-yl]-1,2-dimethyl-cyclopropanecarboxamide] | 69.1 nM | 48.3 nM | 5.6 nM | 23.6 nM | 4.9 nM | 18.1 nM | 3.1 nM |  |  |  |  |  | 
